# Test results published in ChEMBL document CHEMBL6182863, “Discovery of novel rigid STING PROTAC degraders as potential therapeutics for acute kidney injury” (Eur J Med Chem, 2025).
# Calls of active or inactive are those of the source. The calls are words filed in the database; no cut-off is given here.
# What was measured:
# [1] = molecular target: T1, Protein cereblon/Stimulator of interferon genes protein (Homo sapiens, UniProt Q96SW2+Q86WV6); assay: PROTAC activity at CRBN/STING in human THP-1 cells assessed as induction of STING degradation measured after 24 hrs by Western blotting analysis; assay type: cell-based
# Target sequence in this assay (Q96SW2 whole entry): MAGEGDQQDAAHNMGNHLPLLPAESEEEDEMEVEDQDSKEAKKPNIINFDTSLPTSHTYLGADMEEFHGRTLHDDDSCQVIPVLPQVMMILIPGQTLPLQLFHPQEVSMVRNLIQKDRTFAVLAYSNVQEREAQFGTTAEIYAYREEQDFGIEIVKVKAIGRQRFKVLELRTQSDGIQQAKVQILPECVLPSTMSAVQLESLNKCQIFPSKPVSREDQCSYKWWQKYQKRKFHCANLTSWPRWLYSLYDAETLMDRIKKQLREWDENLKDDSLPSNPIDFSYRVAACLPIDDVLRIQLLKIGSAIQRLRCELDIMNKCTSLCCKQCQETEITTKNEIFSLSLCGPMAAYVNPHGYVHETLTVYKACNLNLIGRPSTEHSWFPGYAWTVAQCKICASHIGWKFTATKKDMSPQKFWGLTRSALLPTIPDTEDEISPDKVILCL
# Target sequence in this assay (Q86WV6 whole entry): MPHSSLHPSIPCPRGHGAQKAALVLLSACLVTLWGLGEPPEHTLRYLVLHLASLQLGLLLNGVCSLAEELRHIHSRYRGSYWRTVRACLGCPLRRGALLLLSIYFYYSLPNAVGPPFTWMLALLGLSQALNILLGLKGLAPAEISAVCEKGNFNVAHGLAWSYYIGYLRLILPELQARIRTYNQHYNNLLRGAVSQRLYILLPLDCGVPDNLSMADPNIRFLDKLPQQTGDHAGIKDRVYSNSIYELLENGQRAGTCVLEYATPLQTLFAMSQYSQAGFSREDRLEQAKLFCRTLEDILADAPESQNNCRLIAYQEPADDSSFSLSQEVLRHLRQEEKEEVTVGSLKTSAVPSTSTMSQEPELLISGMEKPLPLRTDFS
# [2] = molecular target: T1, Protein cereblon/Stimulator of interferon genes protein; assay: PROTAC activity at CRBN/STING in human THP-1 cells assessed as induction of STING degradation by Western blotting analysis; assay type: cell-based; conditions: time 1-48 hrs
# Target sequence in this assay (Q86WV6 whole entry, looked up): as the sequence (Q86WV6 whole entry) above
# Target sequence in this assay (Q96SW2 whole entry, looked up): as the sequence (Q96SW2 whole entry) above
# [3] = molecular target: T1, Protein cereblon/Stimulator of interferon genes protein; assay: PROTAC activity at CRBN/STING in human THP-1 cells assessed as induction of STING degradation at 5 uM incubated for 24 hrs in presence of MG132 by Western blotting analysis; assay type: cell-based
# Target sequence in this assay (Q86WV6 whole entry, looked up): as the sequence (Q86WV6 whole entry) above
# Target sequence in this assay (Q96SW2 whole entry, looked up): as the sequence (Q96SW2 whole entry) above
# HK-2 [4] = assay: Inhibition of STING downstream signal pathway in cisplatin stimulated human HK-2 cells assessed as reduction in p-IRF3 level by […] analysis; assay type: cell-based; conditions: dose 1.25-5 µM
# HK-2 [5] = assay: Inhibition of STING downstream signal pathway in cisplatin stimulated human HK-2 cells assessed as reduction in P-P65 level by […] analysis; assay type: cell-based; conditions: dose 1.25-5 µM
# THP-1 [6] = assay: PROTAC activity at CRBN/AKT in human THP-1 cells assessed as induction of AKT degradation at 1.25 to 20 uM measured after 24 hrs by Western blotting analysis; assay type: cell-based; conditions: dose 1.25-20 µM
# H9c2 = assay: Cytotoxicity against rat H9c2 cells assessed as reduction in cell viability at 0.5 to 120 uM incubated for 24 hrs by MTT assay; assay type: toxicity, cell-based; conditions: h9c2, 24 h, dose 0.5-120 µM
# [7] = Acute toxicity in C57BL/6J mouse assessed as change in body weight at 88 mg/kg; assay type: organism-based; conditions: in vivo
# [8] = Acute toxicity in C57BL/6J mouse assessed as change in body weight at 125 mg/kg; assay type: organism-based; conditions: in vivo
# [9] = Acute toxicity in C57BL/6J mouse assessed as mortality at 30 to 179 mg/kg; assay type: organism-based; conditions: in vivo, dose 30-179 mg/kg
# [10] = Metabolic stability in human liver microsomes assessed as half life; assay type: ADME, Microsome
# [11] = Metabolic stability in human liver microsomes assessed as metabolic factor relative to control; assay type: ADME, Microsome
# [12] = Metabolic stability in human liver microsomes assessed as intrinsic clearance per gram of protein; assay type: ADME, Microsome
# [13] = Apparent volume of distribution in male Sprague-Dawley rat at 2 mg/kg, iv measured after 12 hrs by LC-MS/MS analysis; assay type: ADME, organism-based; conditions: in vivo, read-out: Vz
# [14] = Toxicity in cisplatin-induced acute kidney injury C57BL/6J mouse model assessed as morphological abnormality in heart at 25 to 50 mg/kg, ip by H and E staining based analysis; assay type: organism-based; conditions: in vivo, dose 25-50 mg/kg
# Mus musculus [15] = assay: Renoprotective activity against cisplatin-induced C57BL/6J mouse acute kidney injury model assessed as survival rate at 25 mg/kg, ip measured after 72 hrs relative to control; assay type: functional
# Mus musculus [16] = assay: Renoprotective activity against cisplatin-induced C57BL/6J mouse acute kidney injury model assessed as reduction in kidney weight at 25 to 50 mg/kg, ip measured after 72 hrs; assay type: functional, organism-based; conditions: dose 25-50 mg/kg
# Mus musculus [17] = assay: Renoprotective activity against cisplatin-induced C57BL/6J mouse acute kidney injury model assessed as reduction in BUN level at 25 to 50 mg/kg, ip measured after 72 hrs; assay type: functional, organism-based; conditions: dose 25-50 mg/kg
# [18] = molecular target: T2, Protein cereblon/Stimulator of interferon genes protein (Mus musculus) (UniProt Q3TBT3+Q8C7D2); assay: In vivo inhibition of STING/TBK1/NF-kappaB signaling in C57BL/6J mouse assessed as decrease in STING protein level in kidney at 25 to 50 mg/kg, ip measured after 72 hrs by Western blotting analysis; assay type: functional, organism-based; conditions: dose 25-50 mg/kg
# [19] = molecular target: T2, Protein cereblon/Stimulator of interferon genes protein (Mus musculus); assay: In vivo inhibition of STING/TBK1/NF-kappaB signaling in C57BL/6J mouse assessed as decrease in P-P65 protein level in kidney at 25 to 50 mg/kg, ip measured after 72 hrs by Western blotting analysis; assay type: functional, organism-based; conditions: dose 25-50 mg/kg
# [20] = molecular target: T2, Protein cereblon/Stimulator of interferon genes protein (Mus musculus); assay: In vivo inhibition of STING/TBK1/NF-kappaB signaling in C57BL/6J mouse assessed as decrease in serum CXCL10 level at 25 to 50 mg/kg, ip measured after 72 hrs by ELISA; assay type: functional, organism-based; conditions: dose 25-50 mg/kg
# Mus musculus [21] = assay: Renoprotective activity against cisplatin-induced C57BL/6J mouse model assessed as reduction in renal injury administered intraperitoneally by H and E staining based analysis; assay type: functional, organism-based; conditions: dose 25-50 mg/kg, route ip
# THP-1 [22] = assay: PROTAC activity at CRBN/AMPK in human THP-1 cells assessed as induction of AMPK degradation at 1.25 to 20 uM measured after 24 hrs by Western blotting analysis; assay type: cell-based; conditions: dose 1.25-20 µM
# THP-1 [23] = assay: PROTAC activity at CRBN/ERK in human THP-1 cells assessed as induction of ERK degradation at 1.25 to 20 uM measured after 24 hrs by Western blotting analysis; assay type: cell-based; conditions: dose 1.25-20 µM
# T2 sequence (Q3TBT3 whole entry, looked up): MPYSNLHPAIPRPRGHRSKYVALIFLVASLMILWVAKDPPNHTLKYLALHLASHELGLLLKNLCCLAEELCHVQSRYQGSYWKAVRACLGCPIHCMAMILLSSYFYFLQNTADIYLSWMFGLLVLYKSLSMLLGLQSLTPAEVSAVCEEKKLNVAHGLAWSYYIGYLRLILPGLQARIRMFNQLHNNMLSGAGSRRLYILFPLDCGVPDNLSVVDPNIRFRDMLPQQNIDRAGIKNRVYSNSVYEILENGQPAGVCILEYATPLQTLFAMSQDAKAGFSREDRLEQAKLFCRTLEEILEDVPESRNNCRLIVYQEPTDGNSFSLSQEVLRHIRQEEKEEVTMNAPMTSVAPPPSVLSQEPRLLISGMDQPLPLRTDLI
# T2 sequence (Q8C7D2 whole entry, looked up): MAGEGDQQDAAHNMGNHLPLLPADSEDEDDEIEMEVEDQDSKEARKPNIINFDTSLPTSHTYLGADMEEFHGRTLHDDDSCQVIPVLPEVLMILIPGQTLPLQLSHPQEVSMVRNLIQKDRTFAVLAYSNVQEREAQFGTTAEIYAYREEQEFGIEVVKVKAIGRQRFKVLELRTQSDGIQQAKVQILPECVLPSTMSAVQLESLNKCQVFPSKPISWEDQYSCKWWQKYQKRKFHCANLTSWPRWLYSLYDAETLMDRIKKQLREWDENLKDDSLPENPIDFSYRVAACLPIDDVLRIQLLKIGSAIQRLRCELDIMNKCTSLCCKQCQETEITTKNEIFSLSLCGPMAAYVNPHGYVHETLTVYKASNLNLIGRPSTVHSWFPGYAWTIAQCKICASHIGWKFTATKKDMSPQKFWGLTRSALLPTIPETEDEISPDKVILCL
smiles,measurement,setting,value
O=C(/C=C/C(=O)N1CCN(CC2CCN(c3cccc4c3C(=O)N(C3CCC(=O)NC3=O)C4=O)C2)CC1)Nc1ccc(NC(=O)c2ccc([N+](=O)[O-])o2)cc1 (centres undefined),DC50,[1],620 nM
same,Activity,[2],Time-dependent-effect
same,Activity,[3],inactive
same,inhibition,HK-2 [4],Dose-dependent-effect
same,inhibition,HK-2 [5],Dose-dependent-effect
same,Activity,THP-1 [6],inactive
same,Activity,H9c2,Non-toxic
same,Activity,[7],24.9 g
same,Activity,[8],23.4 g
same,Activity,[9],Non-toxic
same,half-life,[10],20.1 min
same,Activity,[11],15.8%
same,CLint,[12],104 mL/min/g
same,Vd,[13],3.9 L/kg
same,Activity,[14],Non-toxic
same,survival at 25 mg/kg,Mus musculus [15],78%
same,Activity,Mus musculus [16],Active
same,Activity,Mus musculus [17],Active
same,inhibition,[18],Active
same,inhibition,[19],Active
same,inhibition,[20],Active
same,Activity,Mus musculus [21],Dose-dependent-effect
same,Activity,THP-1 [22],inactive
same,Activity,THP-1 [23],inactive
